Laboratory results from publication PMC7818921, “Synthesis and biological evaluation of heterocyclic 1,2,4-triazole scaffolds as promising pharmacological agents” (BMC Chemistry, 2021).
≈ marks a conversion by molar mass, not a printed value. Read-outs that look alike come from different tables or passages of the source.

Assays:
Bacillus subtilis = experiment: In vitro antimicrobial screening, tube dilution method; assay type: cell-based; settings: B. substilis, Gram +ve, nutrient broth, 37 ± 1 °C, 24 h, read-out: Minimum inhibitory concentration
Experimental: (§1) The in vitro antimicrobial screening of the synthesized 1,2,4-triazole derivatives (T1–T20) in μM was determined against Gram-positive Bacillus subtilis, […], Gram-negative Escherichia coli bacterium and fungal strains Candida albicans and Aspergillus niger by tube dilution method using ciprofloxacin, amoxycillin (antibacterial) and fluconazole (antifungal) as reference drugs. DMSO was used to dissolve the reference and sample derivatives (T1–T20). Dilutions were prepared in nutrient broth (I.P.) for bacterial (incubated at 37 ± 1 °C for 24 h) and Sabouraud dextrose broth (I.P.) for fungal species (37 ± 1 °C for 48 h for C. albicans) and (25 ± 1 °C for 7 days for A. niger) (Table 3, Figs. 4 and 5).

Escherichia coli = experiment: as above; assay type: cell-based; settings: E. coli, Gram −ve, nutrient broth, 37 ± 1 °C, 24 h, read-out: Minimum inhibitory concentration
Experimental: as §1

Pseudomonas aeruginosa = experiment: as above; assay type: cell-based; settings: P. aeruginosa, Gram −ve, nutrient broth, 37 ± 1 °C, 24 h, read-out: Minimum inhibitory concentration
Experimental: as §1

[1] = test system: Gram-positive (B. subtilis), Gram-negative (P. aeruginosa and E. coli) bacterial strains; experiment: Tube dilution method, MIC of antibacterial standards quoted without strain; assay type: cell-based; settings: antibacterial standard, strain not given
Aspergillus niger = experiment: In vitro antifungal screening, tube dilution method; assay type: cell-based; settings: Aspergillus niger, 168 h; A. niger; Sabouraud dextrose broth, 25 ± 1 °C, 7 days; read-out: Minimum inhibitory concentration
Experimental: as §1

Candida albicans = experiment: as above; assay type: cell-based; settings: Candida albicans; C. albican; Sabouraud dextrose broth, 37 ± 1 °C, 48 h; read-out: Minimum inhibitory concentration
Experimental: as §1

[2] = DPPH free radical scavenging activity; settings: for IC50: DPPH antioxidant; for % inhibition: DPPH
Experimental: In the DPPH free radical scavenging activity, compounds (T1–T20) were evaluated for their free radical scavenging activity with ascorbic acid as standard compound. The scavenging effect increased with the increasing concentrations of sample compounds. DPPH is relatively stable nitrogen centered free radical that easily accepts an electron or hydrogen radical to become a stable diamagnetic molecule. DPPH radicals react with suitable reducing agents as a result of which the electrons become paired off forming the corresponding hydrazine. The solution therefore loses colour stoichometrically depending on the number of electrons taken up. […] The sample solutions were incubated for 30 min at room temperature in dark place and after then absorbance was recorded against the blank solution at 517 nm. The relative percent of DPPH scavenging activity was calculated according to the following equation: I%=Acontrol-Asample/Acontrol×100,
where Acontrol is the absorbance of the control, Asample is the absorbance of the test compound.

Jack Bean Urease = Jack Bean Urease (Canavalia ensiformis, UniProt P07374); experiment: biochemical
Experimental: Urease inhibitory potential for each synthesisized compound (T1–T20) was evaluated using Jack Bean Urease by Indophenol method (Table 5, Figs. 9, 10, 11). 250 µl of jack bean urease (4U) was mixed with 250 µl of different synthesized test compounds and standard of different concentrations [dissolved in DMSO/H2O mixture (1:1 v/v)]. The mixture was pre-incubated for 1 h at 37 °C in test tubes. 2 ml of 100 mM phosphate buffer (pH 6.8) containing 500 mM urea and 0.002% phenol red as an indicator were added in sample test tubes after pre incubation and again incubated at room temperature. Absorbance of reaction mixture was recorded by ELISA at 570 nm. Ammonium carbonate increased the pH of phosphate buffer from 6.8 to 7.7 which was produced from urea by urease enzyme and the end peak was measured by the colour of phenol red indicator [16].
The percentage inhibition of urease enzyme was calculated by using following formula: I%=Acontrol-Asample/Acontrol×100,
where Acontrol is the absorbance of the control; Asample is the absorbance of the test compound.

[3] = test system: HCT116 (human colon cancer cells); experiment: Anticancer evaluation, SRB assay; assay type: cell-based; settings: Homo sapiens, HCT-116
Experimental: HCT116 (human colon cancer cells) were seeded at 2500 cells/well (96 well plate), allowed to attach overnight, exposed to the respective compounds for 72 h and subjected to SRB assay (570 nm). Data represent mean IC50 of at least triplicates. The compounds were all dissolved in DMSO as stock of 100 mg/ml. […] The highest concentration of each compound tested (100 μg/ml) contained only 0.1% DMSO.

[4] = HCT116, 72 h, SRB, mean of at least triplicates

Chain of Jack Bean Urease (P07374 whole entry, looked up): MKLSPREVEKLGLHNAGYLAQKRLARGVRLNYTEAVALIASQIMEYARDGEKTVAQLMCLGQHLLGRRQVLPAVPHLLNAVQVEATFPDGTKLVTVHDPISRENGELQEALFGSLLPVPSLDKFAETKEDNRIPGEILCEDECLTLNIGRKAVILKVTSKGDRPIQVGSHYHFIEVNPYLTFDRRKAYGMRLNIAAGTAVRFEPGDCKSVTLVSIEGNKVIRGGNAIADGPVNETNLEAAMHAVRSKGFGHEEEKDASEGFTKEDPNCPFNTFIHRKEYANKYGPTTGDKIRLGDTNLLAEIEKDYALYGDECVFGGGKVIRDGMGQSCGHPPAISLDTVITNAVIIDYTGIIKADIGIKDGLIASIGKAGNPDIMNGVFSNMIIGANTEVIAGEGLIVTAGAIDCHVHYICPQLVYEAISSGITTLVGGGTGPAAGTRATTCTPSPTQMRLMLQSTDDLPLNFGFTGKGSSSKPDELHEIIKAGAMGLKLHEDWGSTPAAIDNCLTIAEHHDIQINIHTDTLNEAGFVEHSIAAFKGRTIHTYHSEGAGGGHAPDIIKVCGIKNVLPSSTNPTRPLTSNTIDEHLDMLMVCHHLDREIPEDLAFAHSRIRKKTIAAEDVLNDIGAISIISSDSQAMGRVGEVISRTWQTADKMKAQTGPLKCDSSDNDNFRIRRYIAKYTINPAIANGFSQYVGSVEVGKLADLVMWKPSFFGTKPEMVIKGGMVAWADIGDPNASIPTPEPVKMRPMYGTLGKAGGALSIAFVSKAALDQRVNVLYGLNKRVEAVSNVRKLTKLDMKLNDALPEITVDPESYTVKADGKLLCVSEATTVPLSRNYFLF

| SMILES | MIC (Bacillus subtilis; Bacillus subtilis) [µM] | MIC (Escherichia coli; Escherichia coli) [µM] | MIC (Pseudomonas aeruginosa; Pseudomonas aeruginosa) [µM] | MIC (Aspergillus niger) [µM] | MIC (Candida albicans) [µM] | IC50 [2] [µg/mL] | % inhibition ([2]; 25 µg/ml) [%] | % inhibition ([2]; 50 µg/ml) [%] | % inhibition ([2]; 75 µg/ml) [%] | % inhibition ([2]; 100 µg/ml) [%] | IC50 (Jack Bean Urease) [µM] | inhibition at 25 µg/mL (Jack Bean Urease) [%] | inhibition at 50 µg/mL (Jack Bean Urease) [%] | inhibition at 75 µg/mL (Jack Bean Urease) [%] | inhibition at 100 µg/mL (Jack Bean Urease) [%] | IC50 [3, 4] [µM] | melting point [°C] | also measured |
| --- | --- | --- | --- | --- | --- | --- | --- | --- | --- | --- | --- | --- | --- | --- | --- | --- | --- | --- |
| O=C(O)c1cn(C2CC2)c2cc(N3CCNCC3)c(F)cc2c1=O [Ciprofloxacin, reference compound] | 18 (≈ 5.96 µg/mL) | 37.7 (≈ 12.5 µg/mL) | 18 (≈ 5.96 µg/mL) | – | – | – | – | – | – | – | – | – | – | – | – | – | – | MIC (Bacillus subtilis): 18.0 µM (≈ 5.96 µg/mL); MIC (Pseudomonas aeruginosa): 18.0 µM (≈ 5.96 µg/mL); MIC [1]: 18.1 µM |
| CC1(C)S[C@@H]2[C@H](NC(=O)[C@H](N)c3ccc(O)cc3)C(=O)N2[C@H]1C(=O)O [Amoxicillin, reference compound] | 17.1 (≈ 6.25 µg/mL) | 17.1 (≈ 6.25 µg/mL) | 17.1 (≈ 6.25 µg/mL) | – | – | – | – | – | – | – | – | – | – | – | – | – | – | MIC [1]: 17.1 µM |
| CCCCCCCCCCCCCCCc1nnc(S)n1N=Cc1ccc(O)cc1 [Compound T8] | 116 (≈ 50 µg/mL) | 58 (≈ 25 µg/mL) | 58 (≈ 25 µg/mL) | 232 (≈ 100 µg/mL) | 116 (≈ 50 µg/mL) | 36.12 (≈ 83.9 µM) | 43.91 | 58.67 | 67.54 | 82.57 | 131 | 22.4 | 39.6 | 68.6 | 92.7 | > 232 | 192 to 195 | MIC (Escherichia coli): 58.0 µM (≈ 25 µg/mL); MIC (Pseudomonas aeruginosa): 58.0 µM (≈ 25 µg/mL) |
| CCCCCCCCCCCCCCCc1nnc(S)n1N=Cc1ccc(Cl)cc1 [Compound T11] | 55.6 (≈ 25 µg/mL) | 111 (≈ 50 µg/mL) | 111 (≈ 50 µg/mL) | 111 (≈ 50 µg/mL) | 27.8 (≈ 12.5 µg/mL) | 45.36 (≈ 101 µM) | 35.78 | 52.89 | 70.89 | 89.9 | 122 | 25 | 42.5 | 68.9 | 92.7 | > 223 | 202 to 205 | – |
| CCCCCCCCCCCCCCCc1nnc(S)n1N=Cc1ccc(C=O)cc1 [Compound T2] | 56.4 (≈ 25 µg/mL) | 113 (≈ 50 µg/mL) | 56.4 (≈ 25 µg/mL) | 226 (≈ 100 µg/mL) | 226 (≈ 100 µg/mL) | 34.83 (≈ 78.7 µM) | 45.67 | 56.98 | 70.16 | 84.21 | 120 | 40.5 | 49.5 | 55.7 | 67.6 | 3.84 | 182 to 185 | IC50 ([3]; HCT116, value given in dose-response figure): 1.7 µg/mL |
| CCCCCCCCCCCCCCCc1nnc(S)n1N=Cc1ccc(C)cc1 [Compound T3] | 58.3 (≈ 25 µg/mL) | 117 (≈ 50 µg/mL) | 58.3 (≈ 25 µg/mL) | 117 (≈ 50 µg/mL) | 233 (≈ 100 µg/mL) | 34.38 (≈ 80.2 µM) | 43.56 | 60.12 | 75.67 | 88.98 | 126 | 28.2 | 50 | 65.9 | 79.1 | 16.6 | 190 to 193 | – |
| CCCCCCCCCCCCCCCc1nnc(S)n1N=Cc1ccccc1[N+](=O)[O-] [Compound T15] | 54.3 (≈ 25 µg/mL) | 218 (≈ 100 µg/mL) | 109 (≈ 50 µg/mL) | 54.3 (≈ 25 µg/mL) | 218 (≈ 100 µg/mL) | 47.99 (≈ 104 µM) | 38.56 | 50.64 | 62.16 | 80.56 | 133 | 29 | 37.1 | 61.8 | 73.1 | > 218 | 195 to 198 | – |
| CCCCCCCCCCCCCCCc1nnc(S)n1N=Cc1ccc([N+](=O)[O-])cc1 [Compound T17] | 54.3 (≈ 25 µg/mL) | 218 (≈ 100 µg/mL) | 218 (≈ 100 µg/mL) | 27.1 (≈ 12.5 µg/mL) | 109 (≈ 50 µg/mL) | – | 48.75 | 62.57 | 78.16 | 84.61 | 125 | 37.9 | 42.4 | 57.6 | 71.4 | > 218 | 206 to 209 | – |
| CCCCCCCCCCCCCCCc1nnc(S)n1N=Cc1ccc(Cl)cc1Cl [Compound T12] | 103 (≈ 50 µg/mL) | 103 (≈ 50 µg/mL) | 51.7 (≈ 25 µg/mL) | 103 (≈ 50 µg/mL) | 207 (≈ 100 µg/mL) | 39.56 (≈ 81.8 µM) | 44.45 | 51.45 | 68.56 | 70.61 | 120 | 43.6 | 46.6 | 52.6 | 61.6 | > 207 | 211 to 214 | – |
| CCCCCCCCCCCCCCCc1nnc(S)n1N=Cc1cccc(Cl)c1 [Compound T10] | 55.6 (≈ 25 µg/mL) | 111 (≈ 50 µg/mL) | 55.6 (≈ 25 µg/mL) | 55.6 (≈ 25 µg/mL) | 223 (≈ 100 µg/mL) | 43.57 (≈ 97 µM) | 45.56 | 51.56 | 57.57 | 62.67 | 116 | 27.9 | 46.9 | 70.9 | 89.8 | 174 | 205 to 208 | – |
| CCCCCCCCCCCCCCCc1nnc(S)n1N=Cc1ccc(N(C)C)cc1 [Compound T9] | 54.6 (≈ 25 µg/mL) | 54.6 (≈ 25 µg/mL) | 27.3 (≈ 12.5 µg/mL) | 218 (≈ 100 µg/mL) | 109 (≈ 50 µg/mL) | 35.42 (≈ 77.4 µM) | 40.56 | 60.67 | 83.61 | 92.16 | – | 33.5 | 53.7 | 70.5 | 92.7 | > 218 | 198 to 201 | – |
